From US20150299061A1, “FERTILISER COMPOSITION” (priority 2012, published 2015) come the findings set out here.

Marks after values point to notes of the source that are not given here.

The assay concerns grazed pasture. The assay can be described thus: Field trial on grazed pasture: pasture shoot dry matter from two cuts after treatment application. It counts as in vivo. More on the design: Mean Difference vs C (control) / Mean Difference vs UG-20 / Mean Difference vs UG-20 + GA-10 / Mean Difference vs UG-20 + GA-30 / Mean Difference vs UG-20 + GA-60 / Mean Difference vs UL-20 / Mean Difference vs UL-20 + GA-20 / Mean Difference (Control minus treatment): unit not given here. The method, then: The trial was carried out with a total of eight treatments. The eight treatment groups were • 1. Control—negative control (no nitrogen or gibberellic acid), • 2. GA-20—gibberellic acid positive control (gibberellic acid applied at 20 g/ha), • 3. UG-20—granular urea positive control (granular urea applied at a rate of 20 kg N/ha, • 4. UG-20+GA-10—10 g/ha gibberellic acid-coated urea granules (granular urea-20 coated with gibberellic acid to apply gibberellic acid at a rate of 10 g/ha), • 5. UG-20+GA-30—30 g/ha gibberellic acid-coated urea granules (granular urea-20 coated with gibberellic acid to apply gibberellic acid at a rate of 30 g/ha), and • 6. UG-20+GA-60—60 g/ha gibberellic acid-coated urea granules (granular urea-20 coated with gibberellic acid to apply gibberellic acid at a rate of 60 g/ha). • 7. UL-20—liquid urea positive control (liquid urea applied at a rate of 20 kg N/ha [with total liquid volume of 200 L/ha]), and 8. UL-20+GA-20—liquid urea and gibberellic acid positive control (liquid urea applied at a rate of 20 kg N/ha with gibberellic acid applied at a rate of 20 g/ha).
The trial was performed with four repetitions per treatment group on a plot with an area of 2 m^2×2 m^2 at locations in Whangarei, Matamata, Lincoln, Ashburton, and Southland.
The treatments were applied on grazed pasture. All experimental sites were fenced off four months prior to treatment application to avoid nitrogen inputs from grazing animals and fertiliser application. At each site, four blocks separated by a 1 m buffer were established. Each block contained eight small plots (each plot of 2m^2×2m^2) separated by a 1 m buffer zone to give a total of 32 plots.
The above eight treatments were applied in mid August 2011. Before treatments application, four composite soil samples (0-10 cm soil depth), were collected for key soil properties (i.e. soil pH, organic C &N, Olsen P, K, Ca, Mg, CEC, base saturation and MAF quick test). Each composite soil sample composed of 10 randomly collected soil samples from each block. Pastures from each plot were cut at 4 to 5 cm height using a lawn mower at appropriate times (preferably after every 21 days) to simulate rotational grazing practices. Bulk fresh pasture weight for each plot was recorded. Before mowing pastures from each plot, four small randomly picked pasture samples from each plot were cut using a pair of scissors. Fresh pastures were transferred to sealable plastic bags and were kept in a chilly bin. Fresh pastures from each plastic bag were then be transferred to a pre-weighed paper bag, weighed (at least 2 decimal balance), and dried at 60 to 70° C. for one week. After one week of drying, dry pasture weight was recorded to determine pasture moisture content.
In the case of liquid treatments, these were all applied at a rate of 200 L/ha.
The effectiveness of the treatments was measured by comparing the pasture shoot dry matter from two cuts after treatment application. The first cut was made on 26 Sep. 2011 and the second cut made on 12 Oct. 2011.
The pairwise comparisons were calculated using Fisher's least significant difference (LSD) with P=0.05.

In the case of `C=C1C[C@]23C[C@@]1(O)CC[C@H]2[C@@]12C=C[C@H](O)[C@@](C)(C(=O)O1)[C@H]2[C@@H]3C(=O)O` [GA-20 only, gibberellic acid], the “Cumulative mean pasture dry matter” value (mean for the five treatment areas (Whangarei, Matamata, Lincoln, Ashburton, Southland), two cuts after treatment) is 3038.7. In addition, where the note is “pairwise comparison of Table 1 means, Fisher's LSD P=0.05, Control is first treatment, labelled treatment is subtracted”, the “Mean Difference (Control minus treatment)” value was −757.857*. Under “pairwise comparison, Fisher's LSD P=0.05, treatment minus C”, the “Mean Difference vs C (control)” value is recorded as 757.857*. Besides, where the note is “pairwise comparison, Fisher's LSD P=0.05, treatment minus UG-20”, the “Mean Difference vs UG-20” value turned out to be 56.321. Further, the “Mean Difference vs UG-20 + GA-10” value (pairwise comparison, Fisher's LSD P=0.05, treatment minus UG-20 + GA-10) was −91.281. The “Mean Difference vs UG-20 + GA-30” value (pairwise comparison, Fisher's LSD P=0.05, treatment minus UG-20 + GA-30) was −427.001*. Also, the “Mean Difference vs UG-20 + GA-60” value (pairwise comparison, Fisher's LSD P=0.05, treatment minus UG-20 + GA-60) was −381.674*. Where the note is “pairwise comparison, Fisher's LSD P=0.05, treatment minus UL-20”, the “Mean Difference vs UL-20” value is −141.578. In addition, the “Mean Difference vs UL-20 + GA-20” value (pairwise comparison, Fisher's LSD P=0.05, treatment minus UL-20 + GA-20) is −423.846*.
